Values of other authors, collected in article PMC7493416 (ACS Sustainable Chemistry & Engineering, 2019).

How the values were obtained:
[1] = general statement, no reference given

| Compound | Reproductive toxicity | Solubility in water [1] |
| --- | --- | --- |
| CN(C)C=O [DMF, dimethylformamide] | display reproductive toxicity |  |
| CN1CCCC1=O [NMP, N-methylpyrrolidone] | display reproductive toxicity |  |
| O=C1CCCCCC1 [cycloheptanone] |  | insoluble in water |
